The values below come from patent publication US11787796B2, “Plasma Kallikrein inhibitors and uses thereof” (Takeda Pharmaceutical Company Limited, priority 2019, dated 2023).

pEC50: −log10 of the molar value.

Sequence of human activated kallikrein enzyme (P03952 391-638): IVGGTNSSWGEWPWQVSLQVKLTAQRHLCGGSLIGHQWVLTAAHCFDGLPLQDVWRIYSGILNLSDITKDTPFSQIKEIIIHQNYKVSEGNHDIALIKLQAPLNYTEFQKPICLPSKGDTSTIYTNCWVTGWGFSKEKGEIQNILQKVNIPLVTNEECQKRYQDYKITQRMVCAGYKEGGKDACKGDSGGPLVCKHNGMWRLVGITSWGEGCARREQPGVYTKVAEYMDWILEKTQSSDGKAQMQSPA
Sequence of human activated kallikrein enzyme (P03952 20-390 partner): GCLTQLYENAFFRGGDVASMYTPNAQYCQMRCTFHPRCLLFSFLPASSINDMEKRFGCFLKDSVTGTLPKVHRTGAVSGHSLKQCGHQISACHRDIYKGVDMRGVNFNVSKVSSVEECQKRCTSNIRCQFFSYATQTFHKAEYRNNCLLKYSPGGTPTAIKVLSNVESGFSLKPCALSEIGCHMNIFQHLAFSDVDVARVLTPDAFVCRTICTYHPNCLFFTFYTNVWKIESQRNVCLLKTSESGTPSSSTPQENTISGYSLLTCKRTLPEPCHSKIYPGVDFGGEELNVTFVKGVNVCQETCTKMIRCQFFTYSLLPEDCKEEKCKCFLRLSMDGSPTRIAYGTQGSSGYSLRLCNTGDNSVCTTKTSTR

This assay has as its target human activated kallikrein enzyme (Homo sapiens (Human), UniProt P03952). Put plainly: Plasma kallikrein inhibition assay with fluorogenic peptide substrate, 500 pM activated kallikrein format. In kind it is biochemical. The settings on record: 500 pM activated kallikrein; 300 uM Pro-Phe-Arg-7-amido-4-methylcoumarin substrate; 30 min preincubation, 10 min reaction at RT; read-out: Primary Dose Response Assay: Average EC50. As to the method:
Example compounds were evaluated for inhibition of the human activated kallikrein enzyme in two formats of an assay employing a fluorogenic peptide substrate. In one assay format, the concentrations of reagents were as follows: 20 mM Tris pH 7.5, 1 mM EDTA, 150 mM sodium chloride, 0.1% PEG-400, 0.1% Triton X-100, […], 300 uM Pro-Phe-Arg-7-amido-4-methylcoumarin substrate. Prior to reaction initiation with substrate, enzyme and inhibitors were preincubated for 30 min at RT. After initiation with substrate, reactions were incubated for 10 min at RT and fluorescence emission at 460 nm from 380 nm excitation measured with a microplate reader. In another assay format, the concentrations of reagents were as follows: 20 mM Tris pH 7.5, 1 mM EDTA, 150 mM sodium chloride, 0.1% PEG-400, 0.1% Triton X-100, 5 pM activated kallikrein enzyme, 300 uM Pro-Phe-Arg-7-amido-4-methylcoumarin substrate. Prior to reaction initiation with substrate, enzyme and inhibitors were preincubated for 30 min at RT. After initiation with substrate, reactions were incubated for 18 h at RT and fluorescence emission at 460 nm from 380 nm excitation measured with a microplate reader.
Table II provides the results of the assay in the format with 500 pM activated kallikrein assay.
Table III provides comparative plasma kallikrein inhibition potency in the assay format with 500 pM activated kallikrein assay (described in detail in the preceding example).
Take `COc1ccc(-n2cnnn2)c(CNC(=O)c2cn(Cc3cn4cc(C5CC5)cc(CN)c4n3)nn2)c1F` [Example I-25, 1-((8-(aminomethyl)-6-cyclopropylimidazo[1,2-a]pyridin-2-yl)methyl)-N-(2-fluoro-3-methoxy-6-(1H-tetrazol-1-yl)benzyl)-1H-1,2,3-triazole-4-carboxamide]: the negative logarithm of the EC50 (pEC50) is no less than 9.00.

Regarding `Cc1cc(N)nc(C)c1CNC(=O)c1cn(Cc2cn3cc(C4CC4)ccc3n2)nn1` [Example I-26, N-((6-amino-2,4-dimethylpyridin-3-yl)methyl)-1-((6-cyclopropylimidazo[1,2-a]pyridin-2-yl)methyl)-1H-1,2,3-triazole-4-carboxamide], the pEC50 is no less than 9.00.

Take `COc1ccc(-n2cnnn2)c(CNC(=O)c2cn(Cc3cn4cc(C5CC5)cc(C(O)C5COC5)c4n3)nn2)c1F` (stereo not drawn) [Example I-27, 1-((6-cyclopropyl-8-(hydroxy(oxetan-3-yl)methyl)imidazo[1,2-a]pyridin-2-yl)methyl)-N-(2-fluoro-3-methoxy-6-(1H-tetrazol-1-yl)benzyl)-1H-1,2,3-triazole-4-carboxamide]: the pEC50 is no less than 9.00.

With `COc1ccc(-n2cnnn2)c(CNCc2cn(Cc3cn4cc(C5CC5)ccc4n3)nn2)c1F` [Example I-29, 1-(1-((6-cyclopropylimidazo[1,2-a]pyridin-2-yl)methyl)-1H-1,2,3-triazol-4-yl)-N-(2-fluoro-3-methoxy-6-(1H-tetrazol-1-yl)benzyl)methanamine], the pEC50 is 8.00 to 9.00.

Consider `O=S(=O)(NCc1c(-n2cnnn2)ccc(Cl)c1F)c1cn(Cc2cn3cc(C4CC4)ccc3n2)nn1` [Example I-30, N-(3-chloro-2-fluoro-6-(1H-tetrazol-1-yl)benzyl)-1-((6-cyclopropylimidazo[1,2-a]pyridin-2-yl)methyl)-1H-1,2,3-triazole-4-sulfonamide], for which the pEC50 was 5.70 to 7.00.

On to `COc1ccc(-n2cnnn2)c(C(C)NC(=O)c2cn(Cc3cn4cc(C5CC5)ccc4n3)nn2)c1F` (stereo not drawn) [Example I-31, 1-((6-cyclopropylimidazo[1,2-a]pyridin-2-yl)methyl)-N-(1-(2-fluoro-3-methoxy-6-(1H-tetrazol-1-yl)phenyl)ethyl)-1H-1,2,3-triazole-4-carboxamide], for which the negative-log EC50 (pEC50) was 8.00 to 9.00.

Turning to `N=C(N)c1ccc(CNS(=O)(=O)c2cnn(Cc3cn4cc(C5CC5)ccc4n3)c2)cc1` [Example I-32, 4-(((1-((6-cyclopropylimidazo[1,2-a]pyridin-2-yl)methyl)-1H-pyrazole)-4-sulfonamido)methyl)benzimidamide], the negative logarithm of the EC50 (pEC50) was 8.00 to 9.00.

With `NCc1ccc(CNS(=O)(=O)c2cnn(Cc3cn4cc(C5CC5)ccc4n3)c2)cc1` [Example I-33, N-(4-(aminomethyl)benzyl)-1-((6-cyclopropylimidazo[1,2-a]pyridin-2-yl)methyl)-1H-pyrazole-4-sulfonamide], the pEC50 is 5.15 to 5.70.

Turning to `N#Cc1ccc(CNS(=O)(=O)c2cnn(Cc3cn4cc(C5CC5)ccc4n3)c2)cc1` [Example I-34, N-(4-cyanobenzyl)-1-((6-cyclopropylimidazo[1,2-a]pyridin-2-yl)methyl)-1H-pyrazole-4-sulfonamide], the pEC50 is less than 5.15.

With `O=S(=O)(NCCc1ccc(Cl)cc1)c1cnn(Cc2cn3cc(C4CC4)ccc3n2)c1` [Example I-35, N-(4-chlorophenethyl)-1-((6-cyclopropylimidazo[1,2-a]pyridin-2-yl)methyl)-1H-pyrazole-4-sulfonamide], the pEC50 is less than 5.15.

Take `O=S(=O)(NCCOc1ccccc1)c1cnn(Cc2cn3cc(C4CC4)ccc3n2)c1` [Example I-36, 1-((6-cyclopropylimidazo[1,2-a]pyridin-2-yl)methyl)-N-(2-phenoxyethyl)-1H-pyrazole-4-sulfonamide]: the negative-log EC50 (pEC50) was less than 5.15.

Take `CC(NS(=O)(=O)c1cnn(Cc2cn3cc(C4CC4)ccc3n2)c1)c1ccc(Cl)cc1` (stereo not drawn) [Example I-37]: the pEC50 is less than 5.15.
